Results: PubChem BioAssay AID1963434 (Molecular Pharmacology Branch, DTP, NCI, 2024)

System: 755483-174-R-J1-PDC complex spheroid growth, percent test/control
Assay: Anticancer human tumor 755483-174-R-J1-PDC patient-derived rhabdomyosarcoma cell line growth inhibition [Asc]
Details: for IC50: curve of first compound; for viability, T/C: stronger effect = lower value
Procedure, shortened: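 Stromal components (HUVEC and hMSC) are co-assembled with the cancer cells into multicellular spheroids. Drugs are then added singly or paired, at concentrations falling by half-log increments from a clinically achievable maximum, capped at 10 microM without known Cmax.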

[1] = second compound 0.01 µM, first compound 0.0316 µM
[2] = second compound 0.01 µM, first compound 0.1 µM
[3] = second compound 0.01 µM, first compound 0.316 µM
[4] = second compound 0.01 µM, first compound 1 µM
[5] = second compound 0.0316 µM, first compound 0.0316 µM
[6] = second compound 0.0316 µM, first compound 0.1 µM
[7] = second compound 0.0316 µM, first compound 0.316 µM
[8] = second compound 0.0316 µM, first compound 1 µM
[9] = second compound 0.1 µM, first compound 0.0316 µM
[10] = second compound 0.1 µM, first compound 0.1 µM
[11] = second compound 0.1 µM, first compound 0.316 µM
[12] = second compound 0.1 µM, first compound 1 µM
[13] = second compound 0.316 µM, first compound 0.0316 µM
[14] = second compound 0.316 µM, first compound 0.1 µM
[15] = second compound 0.316 µM, first compound 0.316 µM
[16] = second compound 0.316 µM, first compound 1 µM
[17] = second compound 1 µM, first compound 0.0316 µM
[18] = second compound 1 µM, first compound 0.1 µM
[19] = second compound 1 µM, first compound 0.316 µM
[20] = second compound 1 µM, first compound 1 µM
[21] = second compound 0.01 µM, first compound 0.00316 µM
[22] = second compound 0.01 µM, first compound 0.01 µM
[23] = second compound 0.0316 µM, first compound 0.00316 µM
[24] = second compound 0.0316 µM, first compound 0.01 µM
[25] = second compound 0.1 µM, first compound 0.00316 µM
[26] = second compound 0.1 µM, first compound 0.01 µM
[27] = second compound 0.316 µM, first compound 0.00316 µM
[28] = second compound 0.316 µM, first compound 0.01 µM
[29] = second compound 1 µM, first compound 0.00316 µM
[30] = second compound 1 µM, first compound 0.01 µM
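Further: spheroids exposed to compounds for seven days before readout.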

SMILES	IC50 (second compound 0.01 µM)	IC50 (second compound 0.0316 µM)	IC50 (second compound 0.1 µM)	IC50 (second compound 0.316 µM)	IC50 (second compound 1 µM)	viability, T/C [1]	viability, T/C [2]	viability, T/C [3]	viability, T/C [4]	viability, T/C [5]	viability, T/C [6]	viability, T/C [7]	viability, T/C [8]	viability, T/C [9]	viability, T/C [10]	viability, T/C [11]	viability, T/C [13]	viability, T/C [14]	viability, T/C [17]	viability, T/C [18]	also measured
C=CC(=O)N1CCN(c2nc(=O)n(-c3c(C)ccnc3C(C)C)c3nc(-c4c(O)cccc4F)c(F)cc23)C(C)C1 (stereo not given) + CNC(C)C(=O)NC1CN(S(=O)(=O)c2cccc(S(=O)(=O)N3CCC4CCC(C(=O)NC(c5ccccc5)c5ccccc5)N4C(=O)C(NC(=O)C(C)NC)C3)c2)CCC2CCC(C(=O)NC(c3ccccc3)c3ccccc3)N2C1=O	> 10000 nM	> 10000 nM	31.6 nM	< 31.6 nM	< 31.6 nM	80.2%	89.3%	75.2%	61.4%	51.8%	77.5%	61.4%	56.6%	53.4%	54.7%	44.6%	38.4%	36.2%	32.4%	28.9%	viability, T/C (second compound 0.01 µM, first compound 3.16 µM): 80.5%; viability, T/C (second compound 0.01 µM, first compound 10 µM): 63%; viability, T/C (second compound 0.0316 µM, first compound 3.16 µM): 75.1%; viability, T/C (second compound 0.0316 µM, first compound 10 µM): 37.7%; viability, T/C [12]: 59.2%; viability, T/C (second compound 0.1 µM, first compound 3.16 µM): 69.8%; viability, T/C (second compound 0.1 µM, first compound 10 µM): 51.1%; viability, T/C [15]: 44.4%; viability, T/C [16]: 61.1%; viability, T/C (second compound 0.316 µM, first compound 3.16 µM): 46.2%; viability, T/C (second compound 0.316 µM, first compound 10 µM): 43.9%; viability, T/C [19]: 33.6%; viability, T/C [20]: 35.5%; viability, T/C (second compound 1 µM, first compound 3.16 µM): 39.9%; viability, T/C (second compound 1 µM, first compound 10 µM): 36%
COc1c(OCCCN2CCOCC2)ccc2c3n(c(=NC(=O)c4cnc(N)nc4)nc12)CCN3 + CNC(C)C(=O)NC1CN(S(=O)(=O)c2cccc(S(=O)(=O)N3CCC4CCC(C(=O)NC(c5ccccc5)c5ccccc5)N4C(=O)C(NC(=O)C(C)NC)C3)c2)CCC2CCC(C(=O)NC(c3ccccc3)c3ccccc3)N2C1=O	21.4 nM	< 3.16 nM	< 3.16 nM	< 3.16 nM	< 3.16 nM	45.7%	20.4%	8.95%	3.6%	40.2%	19%	5.22%	3.87%	35.6%	11.6%	6.95%	51%	13.7%	24.5%	27.5%	viability, T/C [21]: 59.1%; viability, T/C [22]: 59.4%; viability, T/C [23]: 41.9%; viability, T/C [24]: 56.3%; viability, T/C [25]: 36%; viability, T/C [26]: 43.2%; viability, T/C [12]: 3.25%; viability, T/C [27]: 32%; viability, T/C [28]: 29.7%; viability, T/C [15]: 6.6%; viability, T/C [16]: 1.75%; viability, T/C [29]: 35.4%; viability, T/C [30]: 16.7%; viability, T/C [19]: 22.7%; viability, T/C [20]: 1.36%
NC1CCC(NC2CC2c2ccccc2)CC1 (stereo not given) + CNC(C)C(=O)NC1CN(S(=O)(=O)c2cccc(S(=O)(=O)N3CCC4CCC(C(=O)NC(c5ccccc5)c5ccccc5)N4C(=O)C(NC(=O)C(C)NC)C3)c2)CCC2CCC(C(=O)NC(c3ccccc3)c3ccccc3)N2C1=O	< 0.316 nM	< 0.316 nM	< 0.316 nM	< 0.316 nM	< 0.316 nM	50.3%	45.1%	–	–	28.9%	30%	–	–	45.8%	28.4%	–	21.3%	29.5%	21.7%	25.7%	viability, T/C (second compound 0.01 µM, first compound 0.000316 µM): 27.4%; viability, T/C (second compound 0.01 µM, first compound 0.001 µM): 38.9%; viability, T/C [21]: 36.8%; viability, T/C [22]: 48.5%; viability, T/C (second compound 0.0316 µM, first compound 0.000316 µM): 36.4%; viability, T/C (second compound 0.0316 µM, first compound 0.001 µM): 24.9%; viability, T/C [23]: 31.8%; viability, T/C [24]: 37.5%; viability, T/C (second compound 0.1 µM, first compound 0.000316 µM): 32.6%; viability, T/C (second compound 0.1 µM, first compound 0.001 µM): 27.7%; viability, T/C [25]: 33.4%; viability, T/C [26]: 31.4%; viability, T/C (second compound 0.316 µM, first compound 0.000316 µM): 26.7%; viability, T/C (second compound 0.316 µM, first compound 0.001 µM): 33.6%; viability, T/C [27]: 37.8%; viability, T/C [28]: 29.1%; viability, T/C (second compound 1 µM, first compound 0.000316 µM): 25.9%; viability, T/C (second compound 1 µM, first compound 0.001 µM): 8.86%; viability, T/C [29]: 23.5%; viability, T/C [30]: 20%
